Experiments:
[1] = system: panel of wild-type protein kinases (v-src, Fyn, c-Abl, CAMK IIα, CDK2); assay: In vitro inhibition, panel of wild-type protein kinases; format: biochemical
[2] = target: cGMP dependent protein kinase; conditions: reported (89, 90); cited from earlier work
wild-type c-Abl = target: T1, wild-type c-Abl (Homo sapiens, UniProt P00519); assay: In vitro inhibition by K252a; format: biochemical
T1 construct: GST; made in house

protein kinase A = protein kinase A (Homo sapiens, UniProt P17612); conditions: reported (89, 90); cited from earlier work
[3] = system: Trk family tyrosin kinases; conditions: reported (89, 90); cited from earlier work

T1 sequence (P00519 whole entry): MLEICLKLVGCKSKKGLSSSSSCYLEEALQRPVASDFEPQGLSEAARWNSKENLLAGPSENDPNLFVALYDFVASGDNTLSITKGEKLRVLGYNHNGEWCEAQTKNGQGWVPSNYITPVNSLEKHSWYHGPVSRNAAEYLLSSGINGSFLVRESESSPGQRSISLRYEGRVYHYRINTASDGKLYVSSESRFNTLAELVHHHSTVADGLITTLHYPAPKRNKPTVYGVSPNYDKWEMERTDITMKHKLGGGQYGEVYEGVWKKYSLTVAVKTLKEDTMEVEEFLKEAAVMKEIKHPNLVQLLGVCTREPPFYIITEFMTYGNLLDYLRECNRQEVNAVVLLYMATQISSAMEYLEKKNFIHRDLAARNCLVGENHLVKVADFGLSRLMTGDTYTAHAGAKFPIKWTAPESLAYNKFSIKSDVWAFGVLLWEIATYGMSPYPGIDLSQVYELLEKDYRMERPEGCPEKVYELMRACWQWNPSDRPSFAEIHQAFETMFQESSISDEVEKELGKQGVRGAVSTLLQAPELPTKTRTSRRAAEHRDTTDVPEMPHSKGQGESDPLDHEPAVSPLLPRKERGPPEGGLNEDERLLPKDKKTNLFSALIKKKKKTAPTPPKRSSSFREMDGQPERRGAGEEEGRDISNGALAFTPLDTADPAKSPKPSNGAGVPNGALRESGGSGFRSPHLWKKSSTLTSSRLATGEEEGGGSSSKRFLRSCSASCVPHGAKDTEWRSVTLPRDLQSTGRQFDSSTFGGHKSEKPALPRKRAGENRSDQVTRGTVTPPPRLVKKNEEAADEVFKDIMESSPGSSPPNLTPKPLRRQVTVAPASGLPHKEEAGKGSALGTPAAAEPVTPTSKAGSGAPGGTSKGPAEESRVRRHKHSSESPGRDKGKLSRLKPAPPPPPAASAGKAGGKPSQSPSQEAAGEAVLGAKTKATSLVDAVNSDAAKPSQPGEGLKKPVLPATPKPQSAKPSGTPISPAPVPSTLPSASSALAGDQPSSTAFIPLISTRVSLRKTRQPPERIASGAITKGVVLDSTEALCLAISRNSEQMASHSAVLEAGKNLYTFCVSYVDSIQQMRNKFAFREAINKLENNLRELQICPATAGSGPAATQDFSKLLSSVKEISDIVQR

Q: For COC(=O)[C@@]1(O)C[C@H]2O[C@]1(C)n1c3ccccc3c3c4c(c5c6ccccc6n2c5c31)C(=O)NC4 [Compound K252a, (+)-K252a], which “inhibition of wild-type protein kinases (in words)” value [1] is on record?
A: can efficiently inhibit Src family kinases, cyclin dependent kinases, and calmodulin dependent kinases

Q: What about the IC50 [2] of the same molecule?
A: ≤ 30 nM

Q: And the “inhibition of wild-type Abl” value (wild-type c-Abl)?
A: not effectively inhibited

Q: And the IC50 (protein kinase A)?
A: ≤ 30 nM

Q: And the IC50 [3]?
A: ≤ 30 nM
